Patent publication US8022043B2, “Ceramide derivatives as modulators of immunity and autoimmunity” (Albert Einstein College of Medicine of Yeshiva University, priority 2004, dated 2011)

Columns and labels:
C57BL/6 mice = assay: Serum IL-4 and IFNγ after a single i.p. injection; format: in vivo; settings: 20 hours after single i.p. injection of 4.8 nanomoles
Method: Serum levels of L-4 and IFNγ after a single injection of DB01-1, DB03-4, or DB03-5 are shown. C57BL/6 mice (11-13 weeks old) were given a single i.p. injection of 4.8 nanomoles of the compounds or phosphate buffered saline (PBS)/vehicle control. Serum cytokine levels were measured 2 and 20 hours later by capture ELISA. Bars show means of three mice, with standard deviation. Note that DB01-1 has nearly identical structure to KRN7000 (C24 fatty acid as compared to C26) and has activity that is indistinguishable from KRN7000 in multiple bioassays. We use DB01-1 as a “KRN7000 mimic” because it has been synthesized by our group and is readily available for our studies, and KRN7000 was unavailable due to license restrictions.
A most intriguing property of KRN7000 analogues is that in some cases they may elicit immune responses that are qualitatively different from those that occur following stimulation with the parent compound. […] This selective activation of IL-4 production by NK T cells was proposed to be the basis for the enhanced therapeutic effects of OCH in the EAE model of central nervous system autoimmune disease. We have observed a similar in vivo effect on the nature of the NK T cell response using several of our ceramide-like glycolipids. […] These responses are similar to those seen for DB01-1, an analogue that is structurally almost identical to KRN7000 (C24 fatty acid instead of C26, otherwise identical) and indistinguishable in terms of its activity in our hands. […] This selective IL-4 induction is virtually identical to that reported for the OCH analogue, and thus illustrates the potential for amino substituted analogues of KRN7000 to induce qualitatively different immunomodulatory effects in vivo. The results reported in FIG. 9 were obtained by measuring serum levels of IL-4 and IFNγ after administering a single injection of […], DB03-4, or DB03-5 to C57BL/6 mice. C57BL/6 mice (11-13 weeks old) were given a single i.p. injection of 4.8 nanomoles of the ceramide-like glycolipids or PBS/vehicle control. Serum cytokine levels were measured 2 and 20 hours later by capture ELISA. Bars show means of three mice, with standard deviation.
For experiments involving in vivo treatment of mice with the ceramide-like glycolipids, the ceramide-like glycolipids were administered by i.p. or i.v. injection in 0.2 ml PBS+0.025% Tween-20, or in vehicle alone. A typical dose is about 4-5 nmoles per animal per injection. Representative references for administering an α-galactosyl ceramide to mice by i.p., i.v. or p.o. routes are S. Sharif et al., Activation of natural killer T cells by alpha-galactosylceramide treatment prevents the onset and recurrence of autoimmune Type 1 diabetes, Nat. Med., Sep. 7, 2001, (9):1057-62 and K. Miyamoto et al., A synthetic glycolipid prevents autoimmune encephalomyelitis by inducing TH2 bias of natural killer T cells, Nature. Oct. 4, 2001, 413(6855):5314.

[1] = tested on: Bulk splenocytes from C57BL/6 mice; assay: Splenocyte proliferation assay (3H-thymidine incorporation); format: cell-based; settings: Mus musculus, concentration giving 50% maximal response in proliferation of splenocyte cultures
[2] = tested on: Bulk splenocytes from C57BL/6 mice; assay: Cytokine response of splenocyte cultures (IL-4 and IFNγ ELISA); format: cell-based; settings: 500 nM glycolipid, 48 hours
Method: The cytokine response reported in Table 1 and FIG. 5C was determined by the following procedure: Bulk splenocytes from C57BL/6 mice were plated at 300,000 per well in 96-well flat-bottom tissue culture plates with ceramide-like glycolipids diluted to a concentration of 500 nM in 200 microliters complete medium. After 48 h at 37° C., 150 microliters of supernatant was removed for cytokine measurements. Supernatant levels of IL-4, and IFNγ were measured by standard enzyme-linked immunosorbent assay (ELISA), using capture and biotinylated detection antibody pairs (clones 11B11/BVD6-24G2-biotin, and R4-6A2/XMG1.2-biotin, respectively, from BD Pharmingen, San Diego, Calif.). […] Standards for IL-4 and IFNγ were from Peprotech (Rocky Hill, N.J.).

[3] = culture supernatant ELISA, ND = below the reliable level for detection

`CCCCCCCCCCCCCCCCCCCCCCCC(=O)N[C@@H](COC1OC(CO)C(O)C(O)C1O)[C@H](O)[C@H](O)CCCCCCCCCCCCCC` (stereo partly drawn) [DB01-1] was tested, and the “serum IFNγ response” value (C57BL/6 mice) was “strong IFNγ response”, the EC50 [1] was 63.6 nM and the “IL-4/IFNγ ratio divided by this ratio for DB01-1 (value in parentheses)” value [2] was 1.0. For the same compound, the “ratio IL-4/IFNγ” value [2] was 0.026, the “Cytokine Response IFNγ” value [2, 3] was 7.29 ng/mL and the “Cytokine Response IL-4” value [2, 3] was 0.19 ng/mL.
